# According to the PolyMetriX glass transition set:
row,SMILES,glass transition temperature [°C]
1,*C(=O)c1ccc2c(c1OCc1ccccc1[N+](=O)[O-])C(=O)N(c1ccc(Oc3ccc(N4C(=O)c5ccc(*)c(OCc6ccccc6[N+](=O)[O-])c5C4=O)cc3)cc1)C2=O (repeat unit),198.00
2,*Oc1ccc(/C=C/C(=O)c2ccc(Oc3ccc(C(C)(C)c4ccc(*)cc4)cc3)cc2)cc1 (repeat unit),152.00
3,*Oc1ccc(C(C)(C)c2cccc(C(C)(C)c3ccc(Oc4ccc(C(=O)Nc5ccc(Cc6ccc(NC(=O)c7ccc(*)cc7)cc6)cc5)cc4)cc3)c2)cc1 (repeat unit),149.00
4,*Oc1ccc(C2(c3ccc(OC(=O)c4ccc(Oc5ccc(C6(c7ccc(Oc8ccc(C(*)=O)cc8)cc7)CCC(C(C)(C)C)CC6)cc5)cc4)cc3)CC3CC2C2CCCC32)cc1 (repeat unit),181.00
5,*c1ccc(-c2ccc(Oc3ccc(C4(C)CC(C)(C)c5ccc(Oc6ccc(-c7ccc(-n8c(=O)c9cc%10c(=O)n(*)c(=O)c%10cc9c8=O)cc7)cc6C(F)(F)F)cc54)cc3)c(C(F)(F)F)c2)cc1 (repeat unit),265.00
6,*c1ccc(-c2nc3cc(C(=O)c4ccc5nc(-c6ccccc6)c(-c6ccc(N7C(=O)C8OC9C(=O)N(*)C(=O)C9C8C7=O)cc6)nc5c4)ccc3nc2-c2ccccc2)cc1 (repeat unit),255.00
7,*c1ccc(Oc2ccc(-c3ccc(Oc4ccc(-c5cnc6cc(-c7ccc8nc(*)cnc8c7)ccc6n5)cc4)cc3)cc2)cc1 (repeat unit),213.00
8,*c1ccc(Oc2ccc(-c3ccc(Oc4ccc(-c5nnc(*)c6c(-c7ccc(F)cc7)c(-c7ccc(F)cc7)c(-c7ccc(F)cc7)c(-c7ccc(F)cc7)c56)cc4)cc3)cc2)cc1 (repeat unit),320.00
9,*c1ccc(Oc2ccc(-c3cnc4cc5nc(*)cnc5cc4n3)cc2)cc1 (repeat unit),353.00
10,*c1ccc(Oc2ccc(-c3cnc4cc5ncc(*)nc5cc4n3)cc2)cc1 (repeat unit),353.00
11,*c1ccc(Oc2ccc(-c3cnc4ccc(-c5ccc6ncc(*)nc6c5)cc4n3)cc2)cc1 (repeat unit),305.00
12,*c1ccc(Oc2ccc(-n3c(=O)c4c(Oc5ccc(OC)cc5)c5c(=O)n(*)c(=O)c5c(Oc5ccc(OC)cc5)c4c3=O)cc2)cc1 (repeat unit),303.50
13,*c1ccc(Oc2ccc(C(C)(C)c3ccc(Oc4ccc(-c5nc(-c6ccccn6)nnc5*)cc4)cc3)cc2)cc1 (repeat unit),220.00
14,*c1ccc(Oc2ccc(C(C)(C)c3ccc(Oc4ccc(-c5ncc(*)o5)cc4C(F)(F)F)cc3)cc2)c(C(F)(F)F)c1 (repeat unit),185.00
15,*c1ccc(Oc2ccc(C(C)(C)c3ccc(Oc4ccc(-c5nnc(*)c6c(-c7ccc(F)cc7)c(-c7ccc(F)cc7)c(-c7ccc(F)cc7)c(-c7ccc(F)cc7)c56)cc4)cc3)cc2)cc1 (repeat unit),282.00
16,*c1ccc(Oc2ccc(C(c3ccc(Oc4ccc(-c5nc(*)nc(-c6ccccc6)n5)cc4)cc3)(C(F)(F)F)C(F)(F)F)cc2)cc1 (repeat unit),241.00
17,*c1ccc(Oc2ccc(P(=O)(c3ccccc3)c3ccc(Oc4ccc(-c5nc(-c6ccccc6)[nH]c5*)cc4)cc3)cc2)cc1 (repeat unit),318.00
18,*c1nnc(-c2ccc(Oc3ccc(C(c4ccc(Oc5ccc(*)c6ccccc56)cc4)(C(F)(F)F)C(F)(F)F)cc3)c3ccccc23)o1 (repeat unit),220.00

# More lines, now with the values ahead:
row,glass transition temperature [°C],SMILES
1,246.00,*C(=O)c1ccc2c(c1)C(=O)N(c1ccc(Oc3ccc(C(=O)c4ccc5cc(C(=O)c6ccc(Oc7ccc(N8C(=O)c9ccc(*)cc9C8=O)cc7)cc6)ccc5c4)cc3)cc1)C2=O (repeat unit)
2,167.00,*Oc1ccc(/C=C/C(=O)c2ccc(Oc3ccc(C(C)(c4ccccc4)c4ccc(*)cc4)cc3)cc2)cc1 (repeat unit)
3,163.00,*Oc1ccc(/C=N/N=C/c2ccc(Oc3ccc(C(C)(C)c4ccc(*)cc4)cc3)cc2)cc1 (repeat unit)
4,163.00,*Oc1ccc(C(C)(C)c2ccc(C(C)(C)c3ccc(Oc4ccc(C(=O)Nc5ccc(NC(=O)c6ccc(*)cc6)cc5)cc4)cc3)cc2)cc1 (repeat unit)
5,152.00,*Oc1ccc(C(C)(C)c2ccc(Oc3ccc(C(=O)C(=O)c4ccc(*)cc4)cc3)cc2)cc1 (repeat unit)
6,230.00,*Oc1ccc(C(C)(C)c2ccc(Oc3ccc(C(=O)Nc4ccc(NC(=O)c5ccc(*)cc5)cc4)cc3)cc2)cc1 (repeat unit)
7,177.00,*Oc1ccc(C(C)(c2ccccc2)c2ccc(Oc3ccc(C(=O)C(=O)c4ccc(*)cc4)cc3)cc2)cc1 (repeat unit)
8,227.00,*Oc1ccc(C2(c3ccc(Oc4ccc(/C=N/N=C/c5ccc(*)cc5)cc4)cc3)c3ccccc3-c3ccccc32)cc1 (repeat unit)
9,169.00,*Oc1ccc(NC(=O)c2ccc(Oc3ccc(C(C)(C)c4ccc(C(C)(C)c5ccc(Oc6ccc(C(=O)Nc7ccc(Oc8ccc(C(c9ccc(*)cc9)(C(F)(F)F)C(F)(F)F)cc8)cc7)cc6)cc5)cc4)cc3)cc2)cc1 (repeat unit)
10,269.00,*Oc1ccc(S(=O)(=O)c2ccc(-c3ccc(*)cc3)cc2)cc1 (repeat unit)
11,162.00,*Oc1ccc(S(=O)(=O)c2ccc(Oc3ccc(/C=N/c4ccc(Oc5ccc(/N=C/c6ccc(*)cc6)cc5)cc4)cc3)cc2)cc1 (repeat unit)
12,248.00,*Oc1ccc(S(=O)(=O)c2cccc3c(S(=O)(=O)c4ccc(Oc5ccc(-c6ccc(*)cc6)cc5)cc4)cccc23)cc1 (repeat unit)
13,168.00,*Oc1cccc(NC(=O)c2ccc(Oc3ccc(C(C)(C)c4ccc(C(C)(C)c5ccc(Oc6ccc(C(=O)Nc7ccc(*)cc7)cc6)cc5)cc4)cc3)cc2)c1 (repeat unit)
14,158.50,*c1ccc(Oc2ccc(-c3ccc(Oc4ccc(N5C(=O)CC(=O)N(*)C5=S)cc4)cc3)cc2)cc1 (repeat unit)
15,271.00,*c1ccc(Oc2ccc(-c3cccc(-c4ccc(Oc5ccc(-c6c7c(c(*)c8ccccc68)C(=O)N(c6ccccc6)C7=O)cc5)c(C(F)(F)F)c4)c3)cc2C(F)(F)F)cc1 (repeat unit)
16,269.50,*c1ccc(Oc2ccc(-n3c(=O)c4c(Oc5ccc(OCCCC)cc5)c5c(=O)n(*)c(=O)c5c(Oc5ccc(OCCCC)cc5)c4c3=O)cc2)cc1 (repeat unit)
17,328.80,*c1ccc(Oc2ccc(-n3c(=O)c4cc5c(=O)n(-c6ncc(*)s6)c(=O)c5cc4c3=O)cc2)cc1 (repeat unit)
18,232.00,*c1ccc(Oc2ccc(-n3nc(-c4ccccc4)cc3-c3cccc(-c4cc(-c5ccccc5)nn4*)c3)cc2)cc1 (repeat unit)
19,125.00,*c1ccc(Oc2ccc(C(C)(C)c3ccc(Oc4ccc(-c5cccc(*)n5)cc4C(F)(F)F)cc3)cc2)c(C(F)(F)F)c1 (repeat unit)
20,270.00,*c1ccc(Oc2ccc(S(=O)(=O)c3ccc(Oc4ccc(-c5nc6ccccc6n5-c5ccc(-n6c(*)nc7ccccc76)cc5)cc4)cc3)cc2)cc1 (repeat unit)
